{"source": "ChEMBL document CHEMBL5500336", "about": "“Recent advances in developing modified C14 side chain pleuromutilins as novel antibacterial agents” (Eur J Med Chem, 2024)", "key": {"[1]": {"tested_on": "Staphylococcus epidermidis", "assay": "Antibacterial activity against methicillin-sensitive Staphylococcus epidermidis ATCC 12228 assessed as reduction in bacterial growth incubated for 18 hrs by agar dilution method", "format": "functional"}, "[2]": {"tested_on": "Staphylococcus epidermidis", "assay": "Antibacterial activity against […] Staphylococcus epidermidis ATCC 35984 after 16 to 18 hrs by CLSI protocol based broth microdilution assay", "format": "functional", "conditions": "time 16-18 hrs"}, "Staphylococcus aureus [3]": {"tested_on": "Staphylococcus aureus", "assay": "Antibacterial activity against Methicillin-resistant Staphylococcus aureus assessed as bacterial growth inhibition", "format": "functional"}, "Staphylococcus aureus [4]": {"tested_on": "Staphylococcus aureus", "assay": "Antibacterial activity against […] Staphylococcus aureus ATCC 43300 assessed as reduction in bacterial growth by CLSI protocol based broth microdilution method", "format": "functional"}, "Staphylococcus aureus [5]": {"tested_on": "Staphylococcus aureus", "assay": "Antibacterial activity against Methicillin-sensitive Staphylococcus aureus assessed as bacterial growth inhibition", "format": "functional"}, "Staphylococcus aureus [6]": {"tested_on": "Staphylococcus aureus", "assay": "Antibacterial activity against methicillin-sensitive Staphylococcus aureus assessed as reduction in microbial growth", "format": "functional"}, "Staphylococcus aureus [7]": {"tested_on": "Staphylococcus aureus", "assay": "Antimicrobial activity against […] Staphylococcus aureus ATCC 43300 assessed as inhibition of microbial growth measured after 20 to 24 hrs incubation by CLSI method", "format": "functional", "conditions": "time 20-24 hrs"}, "Staphylococcus aureus [8]": {"tested_on": "Staphylococcus aureus", "assay": "Antimicrobial activity against […] Staphylococcus aureus ATCC 33591 assessed as inhibition of microbial growth measured after 20 to 24 hrs incubation by CLSI method", "format": "functional", "conditions": "time 20-24 hrs"}, "Staphylococcus aureus [9]": {"tested_on": "Staphylococcus aureus", "assay": "Antibacterial activity against […] Staphylococcus aureus ATCC 25923 assessed as reduction in bacterial growth measured after 24 hrs by MH broth based assay", "format": "functional"}, "[10]": {"tested_on": "Staphylococcus epidermidis", "assay": "Antibacterial activity against […] Staphylococcus epidermidis ATCC 51625 assessed as inhibition of bacterial growth measured after 24 hrs by MH broth based assay", "format": "functional"}, "Staphylococcus aureus [11]": {"tested_on": "Staphylococcus aureus", "assay": "Antibacterial activity against […] Staphylococcus aureus BNCC 337371 assessed as bacterial growth inhibition incubated for 18 to 24 hrs by NCCLS based assay", "format": "functional", "conditions": "time 18-24 hrs"}, "Staphylococcus aureus [12]": {"tested_on": "Staphylococcus aureus", "assay": "Antibacterial activity against […] Staphylococcus aureus ATCC 43300 assessed as inhibition of bacterial growth", "format": "functional"}, "Staphylococcus aureus [13]": {"tested_on": "Staphylococcus aureus", "assay": "Antibacterial activity against […] Staphylococcus aureus ATCC 43300 assessed as inhibition of bacterial growth measured after 24 hrs by MH broth based assay", "format": "functional"}, "Staphylococcus": {"tested_on": "Staphylococcus", "assay": "Antimicrobial activity against methicillin-resistant coagulase negative Staphylococcus P1369 at 1 nmol relative to control", "format": "functional"}, "Staphylococcus aureus [14]": {"tested_on": "Staphylococcus aureus", "assay": "Antibacterial activity against Staphylococcus aureus ATCC 25923 assessed as reduction in bacterial growth incubated for 24 hrs by serial dilution method", "format": "functional"}, "Staphylococcus aureus [15]": {"tested_on": "Staphylococcus aureus", "assay": "Antimicrobial activity against methicillin-Staphylococcus aureus 29213 assessed as inhibition of microbial growth incubated for 24 hrs by broth-microdilution assay", "format": "functional"}, "[16]": {"assay": "Cytotoxicity against mouse RAW264.7 cells assessed as reduction in cell viability incubated for 48 hrs by MTT assay", "format": "toxicity, cell-based"}, "Staphylococcus aureus [17]": {"tested_on": "Staphylococcus aureus", "assay": "Antimicrobial activity against […] Staphylococcus aureus ATCC 33591 assessed as reduction in microbial growth incubated for 24 hrs by CLSI protocol based analysis", "format": "functional"}, "Staphylococcus aureus [18]": {"tested_on": "Staphylococcus aureus", "assay": "Antibacterial activity against […] Staphylococcus aureus ATCC 43300 assessed as reduction in microbial growth after 16 hrs by broth microdilution method", "format": "functional"}}}
{"smiles": "C=C[C@]1(C)C[C@@H](OC(=O)CSCc2csc(NC(=O)CN3CCC[C@@H]3CO)n2)[C@]2(C)[C@H](C)CC[C@]3(CCC(=O)[C@H]32)[C@@H](C)[C@@H]1O", "values": [{"measurement": "MIC", "setting": "[1]", "value": 0.063, "unit": "mg/L"}, {"measurement": "MIC", "setting": "[2]", "value": 0.063, "unit": "mg/L"}, {"measurement": "MIC", "setting": "Staphylococcus aureus [3]", "value": 0.063, "unit": "mg/L"}, {"measurement": "MIC", "setting": "Staphylococcus aureus [4]", "value": 0.063, "unit": "mg/L"}, {"measurement": "MIC", "setting": "Staphylococcus aureus [5]", "value": 0.063, "unit": "mg/L"}]}
{"smiles": "C=C[C@]1(C)C[C@@H](OC(=O)CSc2cccc(NC(=O)Nc3ccc(C#N)cc3)c2)[C@]2(C)[C@H](C)CC[C@]3(CCC(=O)[C@H]32)[C@@H](C)[C@@H]1O", "values": [{"measurement": "MIC", "setting": "Staphylococcus aureus [6]", "value": 0.06, "unit": "mg/L"}]}
{"smiles": "C=C[C@]1(C)C[C@@H](OC(=O)CN2CCN(c3ccc(C(=O)/C=C/c4ccc([N+](=O)[O-])cc4)cc3)CC2)[C@]2(C)[C@H](C)CC[C@]3(CCC(=O)[C@H]32)[C@@H](C)[C@@H]1O", "values": [{"measurement": "MIC", "setting": "Staphylococcus aureus [7]", "value": 0.5, "unit": "mg/L"}, {"measurement": "MIC", "setting": "Staphylococcus aureus [8]", "value": 0.5, "unit": "mg/L"}]}
{"smiles": "C=C[C@]1(C)C[C@@H](OC(=O)CSc2nc(C)c(C(=O)OC)c(C)n2)[C@]2(C)[C@H](C)CC[C@]3(CCC(=O)[C@H]32)[C@@H](C)[C@@H]1O", "values": [{"measurement": "MIC", "setting": "Staphylococcus aureus [9]", "value": 0.016, "unit": "mg/L"}, {"measurement": "MIC", "setting": "[10]", "value": 0.03, "unit": "mg/L"}, {"measurement": "MIC", "setting": "Staphylococcus aureus [11]", "value": 0.015, "unit": "mg/L"}]}
{"smiles": "C=C[C@]1(C)C[C@@H](OC(=O)CSc2ccc(NC(=O)c3ccccc3F)cc2)[C@]2(C)[C@H](C)CC[C@]3(CCC(=O)[C@H]32)[C@@H](C)[C@@H]1O", "values": [{"measurement": "MIC", "setting": "Staphylococcus aureus [12]", "value": 0.03, "unit": "mg/L"}, {"measurement": "MBC", "setting": "Staphylococcus aureus [13]", "value": 0.062, "unit": "mg/L"}]}
{"smiles": "C=C[C@]1(C)C[C@@H](OC(=O)CS[C@@H]2CC[C@@H](N)C[C@H]2O)[C@]2(C)[C@H](C)CC[C@]3(CCC(=O)[C@H]32)[C@@H](C)[C@@H]1O", "note": "[LEFAMULIN]", "values": [{"measurement": "Activity", "setting": "Staphylococcus", "value": 3.4, "unit": "%"}]}
{"smiles": "C=C[C@]1(C)C[C@@H](OC(=O)CN2CCN(C(=O)CNC[C@H]3CN(c4ccc(Cl)cc4)C(=O)O3)CC2)[C@]2(C)[C@H](C)CC[C@]3(CCC(=O)[C@H]32)[C@@H](C)[C@@H]1O", "values": [{"measurement": "MIC", "setting": "Staphylococcus aureus [14]", "value": 0.008, "unit": "mg/L"}]}
{"smiles": "C=C[C@]1(C)C[C@@H](OC(=O)CSc2nnc(-c3cccs3)o2)[C@]2(C)[C@H](C)CC[C@]3(CCC(=O)[C@H]32)[C@@H](C)[C@@H]1O", "values": [{"measurement": "MIC", "setting": "Staphylococcus aureus [15]", "value": 0.125, "unit": "mg/L"}, {"measurement": "IC50 at 48 h", "setting": "[16]", "value": 17.9, "unit": "mg/L"}]}
{"smiles": "C=C[C@]1(C)C[C@@H](OC(=O)CSc2ccc(NC(=O)c3ccc(C#N)cc3)cc2)[C@]2(C)[C@H](C)CC[C@]3(CCC(=O)[C@H]32)[C@@H](C)[C@@H]1O", "values": [{"measurement": "MIC", "setting": "Staphylococcus aureus [12]", "value": 0.015, "unit": "mg/L"}, {"measurement": "MBC", "setting": "Staphylococcus aureus [13]", "value": 0.03, "unit": "mg/L"}]}
{"smiles": "C=C[C@]1(C)C[C@@H](OC(=O)CSc2nc3c(F)cccc3o2)[C@]2(C)[C@H](C)CC[C@]3(CCC(=O)[C@H]32)[C@@H](C)[C@@H]1O", "values": [{"measurement": "MIC", "setting": "Staphylococcus aureus [17]", "value": 0.125, "unit": "mg/L"}]}
{"smiles": "C=C[C@]1(C)C[C@@H](OC(=O)CSc2ccccc2NC(=O)c2cccc(F)c2)[C@]2(C)[C@H](C)CC[C@]3(CCC(=O)[C@H]32)[C@@H](C)[C@@H]1O", "values": [{"measurement": "MIC", "setting": "Staphylococcus aureus [18]", "value": 0.125, "unit": "mg/L"}]}
{"smiles": "C=C[C@]1(C)C[C@@H](OC(=O)CSC2=NC(C)=C(C(C)=O)C(C)N2)[C@]2(C)[C@H](C)CC[C@]3(CCC(=O)[C@H]32)[C@@H](C)[C@@H]1O", "note": "(stereo partly specified)", "values": [{"measurement": "MIC", "setting": "Staphylococcus aureus [9]", "value": 0.25, "unit": "mg/L"}, {"measurement": "MIC", "setting": "[10]", "value": 0.25, "unit": "mg/L"}, {"measurement": "MIC", "setting": "Staphylococcus aureus [11]", "value": 0.125, "unit": "mg/L"}]}
{"smiles": "C=C[C@]1(C)C[C@@H](OC(=O)CN2CCN(c3ccc(C(=O)/C=C/c4ccc(N)cc4)cc3)CC2)[C@]2(C)[C@H](C)CC[C@]3(CCC(=O)[C@H]32)[C@@H](C)[C@@H]1O", "values": [{"measurement": "MIC", "setting": "Staphylococcus aureus [7]", "value": 0.5, "unit": "mg/L"}, {"measurement": "MIC", "setting": "Staphylococcus aureus [8]", "value": 0.5, "unit": "mg/L"}]}
